# Source: patent US20230019491A1, “PYRIMIDINE TBK/IKKe INHIBITOR COMPOUNDS AND USES THEREOF” (Merck Patent GmbH, priority 2017, published 2023)
# pIC50: −log10 of the molar value. Where two headings read alike, the source gives them in different places.
# Key:
# [1] = molecular target: T1, TBK1 (Homo sapiens, UniProt Q9UHD2); assay: TBK biochemical assay
# T1 sequence (Q9UHD2 1-729): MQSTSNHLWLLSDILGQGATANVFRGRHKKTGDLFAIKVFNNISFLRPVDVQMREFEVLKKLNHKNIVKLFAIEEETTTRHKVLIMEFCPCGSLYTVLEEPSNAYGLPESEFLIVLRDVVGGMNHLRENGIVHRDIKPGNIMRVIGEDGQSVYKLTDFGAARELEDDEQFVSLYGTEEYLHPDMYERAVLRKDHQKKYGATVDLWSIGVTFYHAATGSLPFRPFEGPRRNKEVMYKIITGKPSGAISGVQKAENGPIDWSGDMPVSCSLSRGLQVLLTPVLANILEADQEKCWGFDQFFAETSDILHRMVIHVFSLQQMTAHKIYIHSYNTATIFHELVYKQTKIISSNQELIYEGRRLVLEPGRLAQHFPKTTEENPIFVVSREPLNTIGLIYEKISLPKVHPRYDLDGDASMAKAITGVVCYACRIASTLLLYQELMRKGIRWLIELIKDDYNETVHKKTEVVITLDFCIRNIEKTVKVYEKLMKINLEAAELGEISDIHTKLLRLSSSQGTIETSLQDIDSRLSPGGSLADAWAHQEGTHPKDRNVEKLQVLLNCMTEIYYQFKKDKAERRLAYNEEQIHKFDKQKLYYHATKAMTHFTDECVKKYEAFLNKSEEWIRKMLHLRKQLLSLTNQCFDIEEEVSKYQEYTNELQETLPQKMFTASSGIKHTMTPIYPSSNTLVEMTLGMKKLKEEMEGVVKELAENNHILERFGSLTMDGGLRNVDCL
# Procedure: (§1) Test compounds were transferred into Labcyte polypropylene 384 well plates (P055-25) and diluted to 3 mM using DMSO. […] 100 uM of a reference compound (1 uM final high concentration). Backfilling was performed if necessary so that all wells contain 1% DMSO final:
# (§2) add 75 nl DMSO/well into columns 1, 2 and 24 using Labcyte Echo. add 75 nl 1.0 mM staurosporine/well into column 23 using Labcyte Echo ([…]) add 4.5 ul enzyme/well using multidrop dispenser add 3 ul substrate/well using multidrop dispenser incubate at 25° C. in Heidolph incubator for 90 min. add 7.5 ul 2× stop buffer using multidrop dispenser read on labchip ez reader II using TBK1.job
# (§3) Raw data files were opened in the Caliper LabChip Reviewer program (Version 3.0.265.0 SP2) and peak assignments were adjusted to reflect “substrate first” with the software's post-run analysis options. A spline-fit baseline was applied using the software's analysis algorithm.
# [2] = molecular target: T2, IKKε (Homo sapiens, UniProt Q14164); assay: IKKε biochemical assay; conditions: 30 uM top concentration, 90 min at 25° C., LabChip EZ Reader II
# T2 sequence (Q14164 1-716): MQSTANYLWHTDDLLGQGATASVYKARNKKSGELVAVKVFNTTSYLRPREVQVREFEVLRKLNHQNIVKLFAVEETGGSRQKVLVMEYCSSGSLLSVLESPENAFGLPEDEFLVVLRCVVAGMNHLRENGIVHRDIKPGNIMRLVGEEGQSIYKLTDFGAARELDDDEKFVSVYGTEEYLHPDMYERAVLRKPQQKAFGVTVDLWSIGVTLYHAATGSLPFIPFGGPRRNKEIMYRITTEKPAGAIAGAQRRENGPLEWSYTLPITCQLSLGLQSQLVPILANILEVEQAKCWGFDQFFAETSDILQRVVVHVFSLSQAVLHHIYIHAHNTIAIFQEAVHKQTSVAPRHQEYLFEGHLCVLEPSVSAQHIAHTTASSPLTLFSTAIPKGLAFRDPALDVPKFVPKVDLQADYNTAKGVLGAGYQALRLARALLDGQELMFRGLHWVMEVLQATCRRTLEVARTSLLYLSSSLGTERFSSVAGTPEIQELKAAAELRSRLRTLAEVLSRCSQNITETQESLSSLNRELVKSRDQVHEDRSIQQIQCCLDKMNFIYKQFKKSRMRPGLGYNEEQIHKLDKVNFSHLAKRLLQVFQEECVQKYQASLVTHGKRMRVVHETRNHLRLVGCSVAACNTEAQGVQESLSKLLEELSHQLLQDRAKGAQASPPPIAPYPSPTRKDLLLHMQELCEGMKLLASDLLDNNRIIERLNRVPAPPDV
# Procedure: as §1
# as §2, with “C.” for “C. in Heidolph incubator”, “buffer” for “buffer using multidrop dispenser”, “IKKε.” for “TBK1.job”
# as §3
# [3] = 10 point 1:4 dose response, 30 uM top concentration, 90 min at 25° C., LabChip EZ Reader II, read-out: TBK1_IC50
# [4] = 10 point 1:4 dose response, read-out: IKKε_IC50
"pIC50 [1, 3]","pIC50 [2, 4]",SMILES,pIC50 [1],"pIC50 ([2]; IKKε_IC50, 10 point 1:4 dose response)"
> 7.00,> 7.00,"COc1nc(Nc2nccc(-c3ccc(OC4CCN(C(=O)[C@@H](C)O)CC4(F)F)c(C#N)c3)n2)ccc1N1CCN(C)CC1C (stereo in doubt) [Example 110, 2-[3,3-Difluoro-1-((R)-2-hydroxy-propionyl)-piperidin-4-yloxy]-5-{2-[5-((S)-2,4-dimethyl-piperazin-1-yl)-6-methoxy-pyridin-2-ylamino]-pyrimidin-4-yl}-benzonitrile]",–,–
> 7.00,> 7.00,"COc1nc(Nc2nccc(-c3ccc(OC4CCN(C(=O)[C@H](C)O)CC4(F)F)c(C#N)c3)n2)ccc1N1CCN(C)CC1C (stereo in doubt) [Example 112, 2-[3,3-Difluoro-1-((S)-2-hydroxy-propionyl)-piperidin-4-yloxy]-5-{2-[5-((S)-2,4-dimethyl-piperazin-1-yl)-6-methoxy-pyridin-2-ylamino]-pyrimidin-4-yl}-benzonitrile]",–,–
> 7.00,> 7.00,"COc1nc(Nc2nccc(-c3ccc(OC4CCN(C(=O)C(C)O)CC4(F)F)c(C#N)c3)n2)ccc1N1CCN(C2COC2)CC1 (stereo in doubt) [Example 261, 2-([3,3-difluoro-1-[(2S)-2-hydroxypropanoyl]piperidin-4-yl]oxy)-5-[2-([6-methoxy-5-[4-(oxetan-3-yl)piperazin-1-yl]pyridin-2-yl]amino)pyrimidin-4-yl]benzonitrile]",–,–
> 7.00,> 7.00,"COc1nc(Nc2ncc(F)c(-c3ccc(O[C@H]4CCN(C(=O)C(C)O)C[C@H]4F)c(C#N)c3)n2)ccc1N1CCN(C2COC2)CC1 (stereo in doubt) [Example 297, 2-{[3-fluoro-1-(2-hydroxypropanoyl)piperidin-4-yl]oxy}-5-[5-fluoro-2-({6-methoxy-5-[4-(oxetan-3-yl)piperazin-1-yl]pyridin-2-yl}amino)pyrimidin-4-yl]benzonitrile]",–,–
> 7.00,> 7.00,"COc1cc(Nc2nccc(-c3ccc(OC4CCN(C(=O)C(C)O)CC4(F)F)c(C#N)c3)n2)ccn1 (stereo in doubt) [Example 327, 2-([3,3-difluoro-1-[(2S)-2-hydroxypropanoyl]piperidin-4-yl]oxy)-5-[2-[(2-methoxypyridin-4-yl)amino]pyrimidin-4-yl]benzonitrile]",–,–
> 7.00,> 7.00,"COc1cccc(Nc2nccc(-c3ccc(OC4CCN(C(=O)C(C)O)CC4(F)F)c(C#N)c3)n2)n1 (stereo in doubt) [Example 328, 2-([3,3-difluoro-1-[(2S)-2-hydroxypropanoyl]piperidin-4-yl]oxy)-5-[2-[(6-methoxypyridin-2-yl)amino]pyrimidin-4-yl]benzonitrile]",–,–
> 7.00,> 7.00,"COc1nc(Nc2nccc(-c3ccc(OC4CCOCC4)c(C#N)c3)n2)ccc1C(=O)N(C)C [Example 1, 6-([4-[3-cyano-4-(oxan-4-yloxy)phenyl]pyrimidin-2-yl]amino)-2-methoxy-N,N-dimethylpyridine-3-carboxamide]",–,–
> 7.00,> 7.00,"COc1nc(Nc2nccc(-c3ccc(OC4CCOCC4)c(C#N)c3)n2)ccc1C(=O)NCCO [Example 2, 6-([4-[3-cyano-4-(oxan-4-yloxy)phenyl]pyrimidin-2-yl]amino)-N-(2-hydroxyethyl)-2-methoxypyridine-3-carboxamide]",–,–
> 7.00,> 7.00,"COc1nc(Nc2nccc(-c3ccc(OC4CCOCC4)c(C#N)c3)n2)ccc1C(=O)N(C)CCO [Example 3, 6-([4-[3-cyano-4-(oxan-4-yloxy)phenyl]pyrimidin-2-yl]amino)-N-(2-hydroxyethyl)-2-methoxy-N-methylpyridine-3-carboxamide]",–,–
> 7.00,> 7.00,"COc1nc(Nc2nccc(-c3ccc(OC4CCOCC4)c(C#N)c3)n2)ccc1C(=O)NC[C@H](O)CO [Example 4, 6-{4-[3-Cyano-4-(tetrahydro-pyran-4-yloxy)-phenyl]-pyrimidin-2-ylamino}-N-((S)-23-dihydroxy-propyl)-2-methoxy-nicotinamide]",–,–
> 7.00,> 7.00,"COc1nc(Nc2nccc(-c3ccc(OC4CCOCC4)c(C#N)c3)n2)ccc1C(=O)N1CCS(=O)(=O)CC1 [Example 5, 5-{2-[5-(1,1-Dioxo-thiomorpholine-4-carbonyl)-6-methoxy-pyridin-2-ylamino]-pyrimidin-4-yl}-2-(tetrahydro-pyran-4-yloxy)-benzonitrile]",–,–
> 7.00,> 7.00,"COc1nc(Nc2nccc(-c3ccc(OC4CCOCC4)c(C#N)c3)n2)ccc1C(=O)N1CCNC(=O)C1 [Example 6, 5-{2-[6-methoxy-5-(3-oxo-piperazine-1-carbonyl)-pyridin-2-ylamino]-pyrimidin-4-yl}-2-(tetrahydro-pyran-4-yloxy)-benzonitrile]",–,–
–,–,"COc1nc(Nc2nccc(-c3ccc(OC4CCOCC4)c(C#N)c3)n2)ccc1C(=O)N1CC2CC(C1)O2 [Example 7, 5-(2-[[6-methoxy-5-([6-oxa-3-azabicyclo[3.1.1]heptan-3-yl]carbonyl)pyridin-2-yl]amino]pyrimidin-4-yl)-2-(oxan-4-yloxy)benzonitrile]",> 7.00,> 7.00
> 7.00,> 7.00,"COc1nc(Nc2nccc(-c3ccc(OC4CCOCC4)c(C#N)c3)n2)ccc1C(=O)NC1C2COCC21 (centres unmarked) [Example 8, 6-([4-[3-cyano-4-(oxan-4-yloxy)phenyl]pyrimidin-2-yl]amino)-2-methoxy-N-[3-oxabicyclo[3.1.0]hexan-6-yl]pyridine-3-carboxamide]",–,–
> 7.00,> 7.00,"COc1nc(Nc2nccc(-c3ccc(OC4CCOCC4)c(C#N)c3)n2)ccc1C(=O)NC1CCCC1O (centres unmarked) [Example 9, 6-{4-[3-Cyano-4-(tetrahydro-pyran-4-yloxy)-phenyl]-pyrimidin-2-ylamino}-N-(2-hydroxy-cyclopentyl)-2-methoxy-nicotinamide]",–,–
> 7.00,> 7.00,"COc1nc(Nc2nccc(-c3ccc(OC4CCOCC4)c(C#N)c3)n2)ccc1C(=O)N1CC2CCC(C1)O2 [Example 10, 5-(2-[[6-methoxy-5-([8-oxa-3-azabicyclo[3.2.1]octan-3-yl]carbonyl)pyridin-2-yl]amino]pyrimidin-4-yl)-2-(oxan-4-yloxy)benzonitrile]",–,–
> 7.00,> 7.00,"COc1nc(Nc2nccc(-c3ccc(OC4CCOCC4)c(C#N)c3)n2)ccc1C(=O)N1CC2CCC1CO2 (centres unmarked) [Example 11, 5-(2-[[6-methoxy-5-([2-oxa-5-azabicyclo[2.2.2]octan-5-yl]carbonyl)pyridin-2-yl]amino]pyrimidin-4-yl)-2-(oxan-4-yloxy)benzonitrile]",–,–
> 7.00,–,"COc1nc(Nc2nccc(-c3ccc(O[C@H]4CCN(C(=O)[C@H](C)O)CC4(F)F)c(C#N)c3)n2)ccc1N1CCN(C2COC2)CC1 [Example 121, 2-[[(4S)-3,3-difluoro-1-[(2S)-2-hydroxypropanoyl]piperidin-4-yl]oxy]-5-[2-([6-methoxy-5-[4-(oxetan-3-yl)piperazin-1-yl]pyridin-2-yl]amino)pyrimidin-4-yl]benzonitrile]",–,–
